Test results: patent US20070049564A1 (Wyeth, priority 2005, published 2007)
Converted amounts (≈) assume the structure as drawn. Like-named read-outs stand apart in the source and are kept apart here.

What was measured:
[1] = test system: c. albicans GC 3066; experiment: MIC, broth microdilution
[2] = test system: E. coli GC 3226; experiment: MIC, broth microdilution; settings: Escherichia coli
[3] = test system: S. aureus GC 1079; experiment: MIC, broth microdilution; settings: Staphylococcus aureus
[4] = test system: S. typhimurium GC 2172; experiment: MIC, broth microdilution; settings: Salmonella enterica, TYPHIMURIUM
[5] = test system: S. aureus GC 1131; experiment: MIC, broth microdilution; settings: Staphylococcus aureus
[6] = test system: S. aureus GC 6335; experiment: MIC, broth microdilution; settings: Staphylococcus aureus
[7] = test system: S. epidermidis GC 4935; experiment: MIC, broth microdilution; settings: Staphylococcus epidermidis
[8] = test system: E. coli GC 2234; experiment: MIC, broth microdilution; settings: Escherichia coli
[9] = test system: E. coli GC 2272; experiment: MIC, broth microdilution; settings: Escherichia coli
[10] = test system: E. coli GC 2232; experiment: MIC, broth microdilution; settings: Escherichia coli
[11] = test system: E. coli GC 2231; experiment: MIC, broth microdilution; settings: Escherichia coli
[12] = test system: S. pyogenes GC 4563; experiment: MIC, broth microdilution; settings: Streptococcus pyogenes
[13] = test system: S. aureus GC 6466; experiment: MIC, broth microdilution; settings: Staphylococcus aureus
[14] = test system: E. faecium GC 4556; experiment: MIC, broth microdilution; settings: Enterococcus faecium
[15] = test system: S. pneumoniae+ GC 4465; experiment: MIC, broth microdilution; settings: Streptococcus pneumoniae
[16] = test system: S. aureus GC 2216; experiment: MIC, broth microdilution; settings: Staphylococcus aureus
Experimental: Antimicrobial susceptibility testing. The in vitro activities of the antibiotics are determined by the broth microdilution method as recommended by the National Committee for Clinical Laboratory Standards (NCCLS) (1). Mueller-Hinton II broth (MHBII)(BBL Cockeysville, Md.) is the medium employed in the testing procedures. Microtiter plates containing serial dilutions of each antimicrobial agent are inoculated with each organism to yield the appropriate density (10^5 CFU/ml) in a 100 μl final volume. The plates are incubated for 18-22 hours at 35° C. in ambient air. […] Standard Pharmacological Test Procedures
Presented in Tables I-XIII are representative compounds of Formula I which were evaluated against a panel of 40 selected gram-positive and gram-negative bacteria strains by pre-incubation in water, mouse serum or human serum. Representative compounds were first incubated in mouse serum for an hour prior to the in vitro testing against a panel of selected gram-positive and gram-negative bacteria strains. All compounds were also pre-incubated in water for an hour prior to testing as control. Representative compounds of Formula I were incubated in human serum prior to MIC determination.

[17] = test system: S. pneumoniae* GC 4465; experiment: MIC, broth microdilution; settings: Streptococcus pneumoniae
[18] = test system: E. faecalis GC 2267; experiment: MIC, broth microdilution; settings: Enterococcus faecalis
[19] = test system: E. faecium GC 2243; experiment: MIC, broth microdilution; settings: Enterococcus faecium
Experimental: Antimicrobial susceptibility testing. The in vitro activities of the antibiotics are determined by the broth microdilution method as recommended by the National Committee for Clinical Laboratory Standards (NCCLS) (1). Mueller-Hinton II broth (MHBII)(BBL Cockeysville, Md.) is the medium employed in the testing procedures. Microtiter plates containing serial dilutions of each antimicrobial agent are inoculated with each organism to yield the appropriate density (10^5 CFU/ml) in a 100 μl final volume. The plates are incubated for 18-22 hours at 35° C. in ambient air.
Representative compounds were first incubated in mouse serum for an hour prior to the in vitro testing against a panel of selected gram-positive and gram-negative bacteria strains. All compounds were also pre-incubated in water for an hour prior to testing as control.

[20] = test system: Staph. aureus Smith; experiment: In vivo activity (oral, iv; ED50) against Staph. aureus Smith in mice
Experimental: Representative examples of compounds of Formula I were tested for the oral efficacy using S. aureus Smith in mice.

[21] = read-out: MINIMAL INHIBITORY CONCENTRATION MIC, pre-incubated in Human Serum
[22] = read-out: MINIMAL INHIBITORY CONCENTRATION MIC, pre-incubated in Mouse Serum
[23] = read-out: MINIMAL INHIBITORY CONCENTRATION MIC, pre-incubated in Water

CN(C)c1cc(NC(=O)CN(C(=O)OCOC(=O)C2CCCC2)C(C)(C)C)c(O)c2c1C[C@H]1C[C@H]3[C@H](N(C)C)C(O)=C(C(N)=O)C(=O)[C@@]3(O)C(O)=C1C2=O [Example 46, ({[(2-{[(5aR,6aS,7S,10aS)-9-(aminocarbonyl)-4,7-bis(dimethylamino)-1,8,10a,11-tetrahydroxy-10,12-dioxo-5,5a,6,6a,7,10,10a,12-octahydrotetracen-2-yl]amino}-2-oxoethyl)(tert-butyl)amino]carbonyl}oxy)methyl cyclopentanecarboxylate]
MIC ([1]; Candida albicans, GC3066, read-out: MINIMAL INHIBITORY CONCENTRATION MIC): > 64 µg/mL
MINIMAL INHIBITORY CONCENTRATION MIC ([1]; pre-incubated in Human Serum): >64 UG/ML
MINIMAL INHIBITORY CONCENTRATION MIC ([1]; pre-incubated in Mouse Serum): >64 UG/ML
MIC ([2]; GC3226, read-out: MINIMAL INHIBITORY CONCENTRATION MIC, pre-incubated in Human Serum): 16 µg/mL (≈ 21.2 µM)
MIC ([2]; GC3226, read-out: MINIMAL INHIBITORY CONCENTRATION MIC, pre-incubated in Mouse Serum): 1 µg/mL (≈ 1.32 µM)
MIC ([2]; GC3226, read-out: MINIMAL INHIBITORY CONCENTRATION MIC, pre-incubated in Water): > 64 µg/mL
MIC ([3]; GC1079, read-out: MINIMAL INHIBITORY CONCENTRATION MIC, pre-incubated in Human Serum): 0.5 µg/mL (≈ 0.662 µM)
MIC ([3]; GC1079, read-out: MINIMAL INHIBITORY CONCENTRATION MIC, pre-incubated in Mouse Serum): 0.5 µg/mL (≈ 0.662 µM)
MIC ([3]; GC1079, read-out: MINIMAL INHIBITORY CONCENTRATION MIC, pre-incubated in Water): 0.5 µg/mL (≈ 0.662 µM)
MIC [4, 21]: 32 µg/mL (≈ 42.3 µM)
MIC [4, 22]: 2 µg/mL (≈ 2.65 µM)
MIC [4, 23]: > 64 µg/mL
MIC ([5]; GC1131, read-out: MINIMAL INHIBITORY CONCENTRATION MIC, pre-incubated in Human Serum): 0.5 µg/mL (≈ 0.662 µM)
MIC ([5]; GC1131, read-out: MINIMAL INHIBITORY CONCENTRATION MIC, pre-incubated in Mouse Serum): 0.5 µg/mL (≈ 0.662 µM)
MIC ([5]; GC1131, read-out: MINIMAL INHIBITORY CONCENTRATION MIC, pre-incubated in Water): 0.5 µg/mL (≈ 0.662 µM)
MIC ([6]; GC6335, read-out: MINIMAL INHIBITORY CONCENTRATION MIC, pre-incubated in Human Serum): 0.5 µg/mL (≈ 0.662 µM)
MIC ([6]; GC6335, read-out: MINIMAL INHIBITORY CONCENTRATION MIC, pre-incubated in Mouse Serum): 1 µg/mL (≈ 1.32 µM)
MIC ([6]; GC6335, read-out: MINIMAL INHIBITORY CONCENTRATION MIC, pre-incubated in Water): 1 µg/mL (≈ 1.32 µM)
MIC ([7]; GC4935, read-out: MINIMAL INHIBITORY CONCENTRATION MIC, pre-incubated in Human Serum): 1 µg/mL (≈ 1.32 µM)
MIC ([7]; GC4935, read-out: MINIMAL INHIBITORY CONCENTRATION MIC, pre-incubated in Mouse Serum): 1 µg/mL (≈ 1.32 µM)
MIC ([7]; GC4935, read-out: MINIMAL INHIBITORY CONCENTRATION MIC, pre-incubated in Water): 2 µg/mL (≈ 2.65 µM)
MIC ([8]; GC2234, read-out: MINIMAL INHIBITORY CONCENTRATION MIC, pre-incubated in Human Serum): 4 µg/mL (≈ 5.29 µM)
MIC ([8]; GC2234, read-out: MINIMAL INHIBITORY CONCENTRATION MIC, pre-incubated in Mouse Serum): 0.5 µg/mL (≈ 0.662 µM)
MIC ([8]; GC2234, read-out: MINIMAL INHIBITORY CONCENTRATION MIC, pre-incubated in Water): 64 µg/mL (≈ 84.7 µM)
MIC ([9]; GC2272, read-out: MINIMAL INHIBITORY CONCENTRATION MIC, pre-incubated in Human Serum): 4 µg/mL (≈ 5.29 µM)
MIC ([9]; GC2272, read-out: MINIMAL INHIBITORY CONCENTRATION MIC, pre-incubated in Mouse Serum): 1 µg/mL (≈ 1.32 µM)
MIC ([9]; GC2272, read-out: MINIMAL INHIBITORY CONCENTRATION MIC, pre-incubated in Water): 64 µg/mL (≈ 84.7 µM)
MIC ([10]; GC2232, read-out: MINIMAL INHIBITORY CONCENTRATION MIC, pre-incubated in Human Serum): 4 µg/mL (≈ 5.29 µM)
MIC ([10]; GC2232, read-out: MINIMAL INHIBITORY CONCENTRATION MIC, pre-incubated in Mouse Serum): 0.5 µg/mL (≈ 0.662 µM)
MIC ([10]; GC2232, read-out: MINIMAL INHIBITORY CONCENTRATION MIC, pre-incubated in Water): 64 µg/mL (≈ 84.7 µM)
MIC ([11]; GC2231, read-out: MINIMAL INHIBITORY CONCENTRATION MIC, pre-incubated in Human Serum): 4 µg/mL (≈ 5.29 µM)
MIC ([11]; GC2231, read-out: MINIMAL INHIBITORY CONCENTRATION MIC, pre-incubated in Mouse Serum): 0.5 µg/mL (≈ 0.662 µM)
MIC ([11]; GC2231, read-out: MINIMAL INHIBITORY CONCENTRATION MIC, pre-incubated in Water): 64 µg/mL (≈ 84.7 µM)
MIC ([12]; GC4563, read-out: MINIMAL INHIBITORY CONCENTRATION MIC, pre-incubated in Human Serum): 0.25 µg/mL (≈ 0.331 µM)
MIC ([12]; GC4563, read-out: MINIMAL INHIBITORY CONCENTRATION MIC, pre-incubated in Mouse Serum): 0.12 µg/mL (≈ 0.159 µM)
MIC ([12]; GC4563, read-out: MINIMAL INHIBITORY CONCENTRATION MIC, pre-incubated in Water): 0.25 µg/mL (≈ 0.331 µM)
MIC ([13]; GC6466, read-out: MINIMAL INHIBITORY CONCENTRATION MIC, pre-incubated in Human Serum): 0.25 µg/mL (≈ 0.331 µM)
MIC ([13]; GC6466, read-out: MINIMAL INHIBITORY CONCENTRATION MIC, pre-incubated in Mouse Serum): 0.25 µg/mL (≈ 0.331 µM)
MIC ([13]; GC6466, read-out: MINIMAL INHIBITORY CONCENTRATION MIC, pre-incubated in Water): 0.25 µg/mL (≈ 0.331 µM)
MIC ([14]; GC4556, read-out: MINIMAL INHIBITORY CONCENTRATION MIC, pre-incubated in Human Serum): 1 µg/mL (≈ 1.32 µM)
MIC ([14]; GC4556, read-out: MINIMAL INHIBITORY CONCENTRATION MIC, pre-incubated in Mouse Serum): 0.5 µg/mL (≈ 0.662 µM)
MIC ([14]; GC4556, read-out: MINIMAL INHIBITORY CONCENTRATION MIC, pre-incubated in Water): 1 µg/mL (≈ 1.32 µM)
MIC [15, 21]: 1 µg/mL (≈ 1.32 µM)
MIC [15, 22]: 1 µg/mL (≈ 1.32 µM)
MIC [15, 23]: 1 µg/mL (≈ 1.32 µM)
MIC ([16]; GC2216, read-out: MINIMAL INHIBITORY CONCENTRATION MIC, pre-incubated in Human Serum): 0.5 µg/mL (≈ 0.662 µM)
MIC ([16]; GC2216, read-out: MINIMAL INHIBITORY CONCENTRATION MIC, pre-incubated in Mouse Serum): 0.5 µg/mL (≈ 0.662 µM)
MIC ([16]; GC2216, read-out: MINIMAL INHIBITORY CONCENTRATION MIC, pre-incubated in Water): 1 µg/mL (≈ 1.32 µM)
MIC [17, 21]: 0.12 µg/mL (≈ 0.159 µM)
MIC [17, 22]: 0.12 µg/mL (≈ 0.159 µM)
MIC [17, 23]: 0.12 µg/mL (≈ 0.159 µM)
MIC ([18]; GC2267, read-out: MINIMAL INHIBITORY CONCENTRATION MIC, pre-incubated in Human Serum): 1 µg/mL (≈ 1.32 µM)
MIC ([18]; GC2267, read-out: MINIMAL INHIBITORY CONCENTRATION MIC, pre-incubated in Mouse Serum): 0.5 µg/mL (≈ 0.662 µM)
MIC ([18]; GC2267, read-out: MINIMAL INHIBITORY CONCENTRATION MIC, pre-incubated in Water): 2 µg/mL (≈ 2.65 µM)
MIC ([19]; GC2243, read-out: MINIMAL INHIBITORY CONCENTRATION MIC, pre-incubated in Human Serum): 0.25 µg/mL (≈ 0.331 µM)
MIC ([19]; GC2243, read-out: MINIMAL INHIBITORY CONCENTRATION MIC, pre-incubated in Mouse Serum): 0.25 µg/mL (≈ 0.331 µM)
MIC ([19]; GC2243, read-out: MINIMAL INHIBITORY CONCENTRATION MIC, pre-incubated in Water): 0.5 µg/mL (≈ 0.662 µM)
ED50 ([20]; Staphylococcus aureus, in Mus musculus, po, read-out: ED50 Staph Smith SOD): 8.4 mg/kg
ED50 ([20]; iv, read-out: ED50 Staph Smith SIV): 0.83 mg/kg
